Blank lines part the entries; values can stand above or below the compound they belong to.
Tests used:
[1] = Fluorescence quantum yield; conditions: quenched substrates versus free fluorophores
Source text: We determined the absorption spectrum of the DNP group and the emission spectrum of the ACC fluorophore in four different assay buffers. […] To determine whether this spectral overlap is sufficient for ACC fluorophore quenching, we synthesized ACC-GDEVD-OH, a caspase substrate cleavage product, and compared its fluorescence with that of the full-length substrate ACC-GDEVD*GVK(DNP)D at various concentrations (Fig. 3).

[2] = test system: Human neutrophil elastase (HNE); experiment: neutrophil elastase in 0.1 M HEPES and 0.5 M NaCl at pH 7.5; conditions: 37 °C, up to 30 min
[3] = test system: caspase-8; experiment: caspase-8 in caspase buffer supplemented with 1 M sodium citrate; conditions: human, 37 °C, up to 30 min
[4] = test system: caspase-3; experiment: caspase-3 in 20 mM Pipes, 0.1 M NaCl, 1 mM EDTA, 10 mM DTT, 10% (w/v) sucrose, pH 7.2 to 7.4; conditions: human, 37 °C, up to 30 min
[5] = test system: caspase-7; experiment: caspase-7 in 20 mM Pipes, 0.1 M NaCl, 1 mM EDTA, 10 mM DTT, 10% (w/v) sucrose, pH 7.2 to 7.4; conditions: human, 37 °C, up to 30 min
[6] = test system: caspase-6; experiment: caspase-6 in caspase buffer, IQF library screening; conditions: human, 37 °C, up to 30 min
[7] = test system: caspase-3; experiment: caspase-3 in caspase buffer, IQF library screening and kinetics; conditions: human, 37 °C, up to 30 min
[8] = test system: caspase-7; experiment: caspase-7 in caspase buffer, IQF library screening and kinetics; conditions: human, 37 °C, up to 30 min
[9] = test system: Trypsin; experiment: trypsin in 0.05 M Tris, 0.15 M NaCl, 0.01% Triton X100, pH 7.6; conditions: 37 °C, up to 30 min
[10] = test system: MMP2; experiment: MMP2 in 0.1 M Tris-HCl, 0.1 M NaCl, 10 mM CaCl2, pH 7.5; conditions: 37 °C, up to 30 min
[11] = test system: MMP9; experiment: MMP9 in 0.1 M Tris-HCl, 0.1 M NaCl, 10 mM CaCl2, pH 7.5; conditions: 37 °C, up to 30 min
[12] = test system: legumain; experiment: legumain in 40 mM citric acid, 1 mM EDTA, 120 mM Na2HPO4, 10 mM DTT, pH 5.8; conditions: human, 37 °C, up to 30 min

Compound: COc1ccc2c(CC(=O)O)cc(=O)oc2c1 [MCA, 7-methoxy-coumarin-4-yl acetic acid]
fluorescence quantum yield (ϕF) [1]: 0.718

Compound: ACC-GAEPV*SLK(dnp)L-NH2
cleaved bond [2]: V-S

Compound: ACC-GDEVE/XKK(dnp)G-NH2 [DEVE/A]
cleaved bond [6]: E-Ala
cleaved bond [7]: E-A
cleaved bond [8]: E-A

Compound: ACC-GDEVE/XKK(dnp)G-NH2 [DEVE/G]
cleaved bond [6]: E-Gly
cleaved bond [7]: E-G
cleaved bond [8]: E-G

Compound: ACC-GPLG*LK(dnp)AR-NH2
cleaved bond [10]: G-L
cleaved bond [11]: G-L

Compound: MCA-GDEVD*GVK(dnp)D-NH2
cleaved bond [3]: D-G
cleaved bond [4]: D-G
cleaved bond [5]: D-G

Compound: MCA-GPLG*LK(dnp)AR-NH2
cleaved bond [10]: G-L
cleaved bond [11]: G-L

Compound: MCA-GPTN*KVK(dnp)R-NH2
cleaved bond [12]: N-K

Continued, values first:

fluorescence quantum yield (ϕF) [1]: 0.861
Compound: NC(=O)Cc1cc(=O)oc2cc(N)ccc12 [ACC, 7-amino-4-carbamoylmethylcoumarin]

cleaved bond [3]: D-G
cleaved bond [4]: D-G
cleaved bond [5]: D-G
Compound: ACC-GDEVD*GVK(dnp)D-NH2

cleaved bond [9]: Lysine-I
Compound: ACC-GGLS(P1)*IVK(DNP)G-NH2 [ACC-GGLS(P1)*IVK(DNP)G-NH2, P1 = Lysine]

cleaved bond [9]: Ornithine-I
Compound: ACC-GGLS(P1)*IVK(DNP)G-NH2 [ACC-GGLS(P1)*IVK(DNP)G-NH2, P1 = Ornithine]

cleaved bond [12]: N-K
Compound: ACC-GPTN*KVK(dnp)R-NH2

cleaved bond [2]: V-S
Compound: MCA-GAEPV*SLK(dnp)L-NH2
